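Tested at 5 concentrations; 48 h exposure; 96-well plates; endpoints linearly interpolated, else capped at highest concentration. The concentration for 50% growth inhibition is given as GI50.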 Activity calls are given as the source filed them. Rule as the data show it: active = GI50 up to about 1.1 µM and inactive = higher.
How the values were obtained:
Assay in all cases: growth of human tumour cells (NCI), 48 h
[1] = system: SK-MEL-28
[2] = system: MDA-MB-435
[3] = system: HOP-62
[4] = system: A498
[5] = system: EKVX
[6] = system: SF-295
[7] = system: MDA-N
[8] = system: OVCAR-8
[9] = system: MOLT-4
[10] = system: IGROV-1
[11] = system: T47D
[12] = system: U-251
[13] = system: DU-145
[14] = system: Hs-578T
[15] = system: RXF 393
[16] = system: 786-0
[17] = system: UACC-257
[18] = system: KM12
[19] = system: LOX IMVI
[20] = system: NCI-H522

Measured: GI50

CC1(C)C2CC1C(/C=N\OCC(=O)O)=CC2=O (stereo unspecified)
inactive: [1] > 100 µM | [2] > 100 µM | [3] > 100 µM | [4] > 100 µM | [5] > 100 µM | [6] > 100 µM | [7] > 100 µM | [8] > 100 µM | [9] > 100 µM | [10] > 100 µM | [11] > 100 µM | [12] > 100 µM | [13] > 100 µM | [14] > 100 µM | [15] > 100 µM | [16] > 100 µM | [17] > 100 µM | [18] > 100 µM | [19] > 100 µM

COc1ccc(/C=C2\N=C(N3CCOCC3)NC2=O)cc1
inactive: [1] > 100 µM | [2] > 100 µM | [3] > 100 µM | [5] > 100 µM | [6] > 100 µM | [7] > 100 µM | [8] > 100 µM | [9] > 100 µM | [20] > 100 µM | [10] > 100 µM | [11] > 100 µM | [12] > 100 µM | [13] > 100 µM | [14] > 100 µM | [15] > 100 µM | [16] > 100 µM | [17] > 100 µM | [18] > 100 µM | [19] > 100 µM

O=C(Cn1c(=O)ccn(C2OC(CO)C(O)C2F)c1=O)c1ccc(F)cc1 (stereo unspecified)
inactive: [1] > 100 µM | [2] > 100 µM | [3] > 100 µM | [5] > 100 µM | [6] > 100 µM | [7] > 100 µM | [8] > 100 µM | [9] > 100 µM | [20] > 100 µM | [10] > 100 µM | [11] > 100 µM | [12] > 100 µM | [13] > 100 µM | [14] > 100 µM | [15] > 100 µM | [16] > 100 µM | [17] > 100 µM | [18] > 100 µM | [19] > 100 µM

COC(=O)C1(NC(=O)C(CC(=O)OCc2ccccc2)NC(=O)OCc2ccccc2)CCCCCC1 (stereo unspecified)
inactive: [1] 26.3 µM | [2] 28.8 µM | [3] 10.1 µM | [5] 47.6 µM | [6] 34.4 µM | [7] 24.7 µM | [8] 27.2 µM | [9] 21.4 µM | [20] 69.3 µM | [10] 37.6 µM | [11] 30.8 µM | [12] 44.9 µM | [13] 66.5 µM | [14] 15.6 µM | [15] 55 µM | [16] 38.5 µM | [18] 50.1 µM | [19] 24.8 µM

O=c1[nH]c(N/N=C\C(O)C(O)C(O)C(O)CO)nc2ccccc12 (stereo unspecified)
inactive: [1] > 100 µM | [2] > 100 µM | [3] > 100 µM | [4] > 100 µM | [5] > 100 µM | [6] > 100 µM | [7] > 100 µM | [8] > 100 µM | [9] > 100 µM | [10] > 100 µM | [11] > 100 µM | [12] > 100 µM | [13] > 100 µM | [14] > 100 µM | [16] > 100 µM | [17] > 100 µM | [18] > 100 µM | [19] > 100 µM

CC(C)(O)/C=C\P(=O)(O)O
inactive: [1] > 100 µM | [2] > 100 µM | [3] > 100 µM | [5] > 100 µM | [6] > 100 µM | [7] > 100 µM | [8] > 100 µM | [20] > 100 µM | [10] > 100 µM | [11] 7.1 µM | [12] > 100 µM | [13] > 100 µM | [14] > 100 µM | [15] > 100 µM | [16] > 100 µM | [17] > 100 µM | [18] > 100 µM | [19] > 100 µM
